Results from paper PMC3640759 (Molecular and biochemical parasitology, 2013).
Where two headings read alike, the source gives them in different places. Each block holds one molecule with its values, some of them ahead of it.

Assays:
[1] = in vitro; conditions: human
[2] = test system: P. falciparum 3D7 strain stage III–V gametocytes; test: alamarBlue gametocyte viability assay, 1,536-well plate format; assay type: cell-based, Plasmodium falciparum
[3] = cytotoxicity assay against SH-SY5Y neuroblastoma cells; conditions: human
[4] = test system: SH-SY5Y neuroblastoma cell line; test: as above; conditions: SH-SY5Y cells; lowest compound concentration 0.37 μM
[5] = test system: P. falciparum gametocytes; conditions: read-out: IC50 reported in 96-well plate format; cited from earlier work
[6] = Plasmodium falciparum, 3D7, 72 h, read-out: IC50 (gametocyte assay)

Compound: CNc1ccc2oc(C[C@H]3O[C@@]4(CC[C@H]3C)O[C@H]([C@H](C)C(=O)c3ccc[nH]3)[C@H](C)C[C@H]4C)nc2c1C(=O)O [Calcimycin]
IC50 [3]: 1.37 µM | IC50 [2, 6]: 1960 nM

Compound: c1ccc2c(c1)[I+]c1ccccc1-2 [Dibenziodolium]
cytotoxicity at lowest compound concentration tested [4]: completely cytotoxic

Compound: CC[C@H](C)[C@H](NC(=O)[C@H]([C@@H](C)CC)N(C)C(C)=O)C(=O)N[C@H](C(=O)N[C@@H](CC(C)C)C(=O)[C@@]1(C)CO1)[C@@H](C)O [epoxomicin]
IC50 [5]: 2.16 nM | IC50 ([2]; seeding density 10 k gametocytes/well, 1,536-well plate): 1.3 nM | IC50 ([2]; seeding density 20 k gametocytes/well, 1,536-well plate): 1.8 nM | IC50 ([2]; seeding density 27.5 k gametocytes/well, 1,536-well plate): 2.1 nM

More lines, main results first:

IC50 [1]: 13.4 µM | IC50 [2, 6]: 250 nM
Compound: CCN(CC)C(=S)SSC(=S)N(CC)CC [Antabuse]

IC50 [1]: 9.48 µM
Compound: Clc1ccccc1C(c1ccccc1)(c1ccccc1)n1ccnc1 [Clotrimazole]

IC50 [2, 6]: 1170 nM
Compound: Cc1cc(NC2CCCCC2)nc(-n2nc(C)cc2C)n1 [CyPPA, Cyclohexyl-[2-(3,5-dimethyl-pyrazol-1-yl)-6-methyl-pyrimidin-4-yl]-amine]
IC50 ([3]; SH-SY5Y neuroblastoma cells): 9.16 µM

IC50 [2, 6]: 2190 nM
Compound: c1cnc2c(c1)ccc1cccnc12 [Phenanthroline, 1,10-phenanthroline]
IC50 ([3]; SH-SY5Y neuroblastoma cells): 5.45 µM
